Structures are written as SMILES. Where two headings read alike, the source gives them in different places.

Holding throughout (test): Cysteine liganding, probe competition
Type in all cases: binding

One assay concerns the target T1, UniProt Q6ZN04 (Homo sapiens, UniProt Q6ZN04).
T1 construct: Cells were resuspended in cold PBS on ice and sonicated with a probe sonicator to achieve lysis; endogenous in cells
T1 sequence (Q6ZN04 1-569): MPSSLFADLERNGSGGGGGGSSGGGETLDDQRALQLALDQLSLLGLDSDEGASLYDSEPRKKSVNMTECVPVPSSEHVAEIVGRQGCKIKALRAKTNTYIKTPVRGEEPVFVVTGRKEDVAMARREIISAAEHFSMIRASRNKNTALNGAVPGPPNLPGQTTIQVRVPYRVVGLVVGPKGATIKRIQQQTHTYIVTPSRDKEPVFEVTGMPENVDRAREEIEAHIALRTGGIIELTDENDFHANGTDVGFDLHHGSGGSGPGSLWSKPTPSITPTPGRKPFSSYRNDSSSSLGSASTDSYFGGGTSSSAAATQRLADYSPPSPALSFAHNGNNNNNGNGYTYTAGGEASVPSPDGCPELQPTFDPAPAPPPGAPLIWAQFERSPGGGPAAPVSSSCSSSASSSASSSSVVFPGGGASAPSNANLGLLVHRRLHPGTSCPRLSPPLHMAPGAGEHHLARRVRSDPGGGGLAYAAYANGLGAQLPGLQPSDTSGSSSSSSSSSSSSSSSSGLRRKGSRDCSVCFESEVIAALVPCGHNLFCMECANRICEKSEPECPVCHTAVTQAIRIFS
To be noted: for inhibition at 500 µM: read-out: percent inhibition. An excerpt: (§1) The following 96-well sample prep protocol was used for sample preparation.

Another assay addresses T2, UniProt Q68DV7 (Homo sapiens, UniProt Q68DV7).
T2 construct: 200 μL of lysate containing 5 mg/ml proteome was treated with 2 μL of 100× compound stock; endogenous in cells
T2 sequence (Q68DV7 24-783): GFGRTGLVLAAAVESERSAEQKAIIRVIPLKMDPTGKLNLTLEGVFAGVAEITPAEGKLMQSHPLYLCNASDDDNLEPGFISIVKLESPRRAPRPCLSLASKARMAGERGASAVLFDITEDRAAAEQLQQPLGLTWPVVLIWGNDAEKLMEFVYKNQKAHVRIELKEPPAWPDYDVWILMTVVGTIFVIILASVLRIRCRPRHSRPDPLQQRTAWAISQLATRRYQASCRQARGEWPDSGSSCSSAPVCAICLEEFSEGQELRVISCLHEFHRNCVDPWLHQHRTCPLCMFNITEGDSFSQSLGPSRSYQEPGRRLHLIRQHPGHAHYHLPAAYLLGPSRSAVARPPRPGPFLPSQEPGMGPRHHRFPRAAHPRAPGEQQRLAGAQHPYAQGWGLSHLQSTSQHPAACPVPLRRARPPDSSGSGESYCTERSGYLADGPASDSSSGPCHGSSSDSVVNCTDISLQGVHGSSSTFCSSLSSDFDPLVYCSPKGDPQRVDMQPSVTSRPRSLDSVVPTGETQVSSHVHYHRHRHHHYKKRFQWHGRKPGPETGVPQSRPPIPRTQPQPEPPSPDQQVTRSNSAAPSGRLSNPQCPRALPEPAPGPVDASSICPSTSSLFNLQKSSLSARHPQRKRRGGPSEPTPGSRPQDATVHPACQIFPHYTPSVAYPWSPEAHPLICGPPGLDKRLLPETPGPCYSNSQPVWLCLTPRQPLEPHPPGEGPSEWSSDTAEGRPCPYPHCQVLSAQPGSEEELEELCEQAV
Source text: as §1

The next assay has as its target T3, UniProt Q8TE49 (Homo sapiens, UniProt Q8TE49).
T3 construct: Cells were resuspended in cold PBS on ice and sonicated with a probe sonicator to achieve lysis; endogenous in cells
T3 sequence (Q8TE49 1-926): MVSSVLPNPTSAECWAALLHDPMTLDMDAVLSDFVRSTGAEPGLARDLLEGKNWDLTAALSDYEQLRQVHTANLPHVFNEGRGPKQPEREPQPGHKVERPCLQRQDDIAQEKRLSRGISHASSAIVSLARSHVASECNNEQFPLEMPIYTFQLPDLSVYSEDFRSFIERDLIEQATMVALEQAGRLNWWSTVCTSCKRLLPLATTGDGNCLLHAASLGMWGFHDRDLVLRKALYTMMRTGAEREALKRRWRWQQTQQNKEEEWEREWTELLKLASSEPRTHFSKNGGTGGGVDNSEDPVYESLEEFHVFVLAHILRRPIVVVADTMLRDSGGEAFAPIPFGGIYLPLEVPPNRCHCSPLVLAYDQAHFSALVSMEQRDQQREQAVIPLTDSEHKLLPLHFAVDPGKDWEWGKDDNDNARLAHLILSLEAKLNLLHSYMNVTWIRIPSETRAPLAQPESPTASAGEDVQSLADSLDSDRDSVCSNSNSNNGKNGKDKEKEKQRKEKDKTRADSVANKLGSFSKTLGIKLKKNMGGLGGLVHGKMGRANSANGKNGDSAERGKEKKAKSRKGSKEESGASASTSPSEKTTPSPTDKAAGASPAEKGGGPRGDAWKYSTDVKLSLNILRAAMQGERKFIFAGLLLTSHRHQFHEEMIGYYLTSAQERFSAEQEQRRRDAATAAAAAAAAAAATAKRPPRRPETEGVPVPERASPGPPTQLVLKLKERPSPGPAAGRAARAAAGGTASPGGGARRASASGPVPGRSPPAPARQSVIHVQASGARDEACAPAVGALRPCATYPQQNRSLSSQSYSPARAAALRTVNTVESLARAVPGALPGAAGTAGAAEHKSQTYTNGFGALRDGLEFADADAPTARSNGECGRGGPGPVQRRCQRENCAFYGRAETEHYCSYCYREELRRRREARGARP
Source text: as §1

Where [1] appears, read: 500 uM, read-out: percent_inhibition.

`COc1ccc2c(c1)CCCN2C(=O)CCl` [KB02]: the inhibition at 500 µM on UniProt Q6ZN04 is 51%; at UniProt Q68DV7 (setting [1]), 41%; on UniProt Q8TE49 (500 uM, read-out: KB02_500 uM_percent_inhibition) it was 28%. In addition, on UniProt Q68DV7 (100 uM), the percent_inhibition came out at 21%. For the same compound, the inhibition at 100 µM at UniProt Q68DV7 (100 uM, read-out: percent_inhibition) came out at 13%.
Turning to `C=CC(=O)N(c1ccccc1)c1ccc(Br)cc1` [KB05], the inhibition at 500 µM was determined as 51% on UniProt Q6ZN04; 42% at UniProt Q68DV7 (setting [1]); 23% on UniProt Q8TE49 (500 uM, read-out: KB05_500 uM_percent_inhibition). Also, the percent_inhibition on UniProt Q68DV7 (500 uM) came out at 40%.
In the case of `O=C(CCl)Nc1cc(C(F)(F)F)cc(C(F)(F)F)c1` [KBO3], the percent inhibition at UniProt Q6ZN04 (500 uM) is listed as 28%. The compound further gave a percent_inhibition at UniProt Q68DV7 (100 uM) of 7%. Further, the “KB03_100 uM_percent_inhibition” value on UniProt Q8TE49 (100 uM) was determined as 52%. Besides, on UniProt Q8TE49 (500 uM), the “KB03_500 uM_percent_inhibition” value came out at 56%.

Source of the values: patent US20200239530A1, “COMPOUNDS AND METHODS OF MODULATING PROTEIN DEGRADATION” (Vividion Therapeutics, Inc., priority 2017, published 2020).
